For data set [1], the system named is HNC cells. The data set is described as follows: invasion of HNC cells. It counts as cell-based, human. The conditions noted are these: ALDH1+CD44+ cells; data not shown. The source says:
(§1) To identified the miRNA(s) involved in the regulation of TIC properties in HNC-TICs, we evaluated and compared the miRNA expression profiles in 3 pairs of HNC populations (ALDH1^+ vs. ALDH1^−, CD44^+ vs. CD44^−, and sphere-forming vs. parental) derived from patient specimens. […] To further investigate whether miR145 plays a role in the identity of HNC-TICs, two patient sample-derived HNC cell lines (HNC-1 and HNC-2) and an immortalized HNC cell line (FaDu) were subjected to quantitative RT-PCR analysis to confirm that miR145 levels were low in ALDH1^+/CD44^+ and sphere-forming HNC cells but high in ALDH1^−/CD44^− and parental cells (FIG. 8A, left and middle). To evaluate the role of miR145 on cancer initiation, we knocked down miR145 in ALDH1^−CD44^− cells derived from HNC-1, HNC-2, and FaDu cells using an miRNA SPONGE strategy (FIG. 8A, right), and subjected these cells to functional and molecular analysis. As shown in FIGS. 8B-D, the sphere formation ability and the percentage of ALDH1^+ and CD44^+ cells was all elevated upon miR145 knockdown (Spg-miR145) as compared to the control (Spg-ctrl) cells. […]

Data set [2] deals with ALDH1+CD44+ HNC cells. The data set is described as follows: HNC-TIC orthotopic xenograft, survival. It counts as in vivo, nude mice. The settings on record: monitored up to 12 weeks. On the procedure: (§2) We further explored the therapeutic potential of miR145 in immunocompromised mice bearing HNC-TIC xenografted tumors. Nude mice that were orthotopically pre-injected with GFP-labeled ALDH1^+CD44^+ cells in the neck region were treated with miR145-overexpressing lentivirus (pLV-miR-145) and shSOX9+shADAM17 by intra-tumoral lesion injection. […] By monitoring the treated mice for up to 12 weeks, we observed that administration of pLV-miR145 or shSOX9+shADAM17 prolonged animal survival to a greater extent than did the LNA-miR145 treatment (FIG. 10B).

The subject of data set [3] is ALDH1+CD44+ HNC cells. The data set is described as follows: HNC-TIC orthotopic xenograft, tumor size. In kind it is in vivo, nude mice. The conditions noted are these: intra-tumoral lesion injection; five weeks after treatment; vs pLV or shLuc. On the procedure:
as §2

Data set [4] deals with HNC cells. Kind of data set: sphere formation of HNC cells. It counts as cell-based, human. The settings on record: ALDH1+CD44+ cells; data not shown.
Source text: as §1

The subject of data set [5] is HNC cells. The data set is described as follows: percentage of ALDH1+ and CD44+ HNC cells. It counts as cell-based, human. The settings on record: data not shown.
Source text: as §1

The test system of data set [6] is ALDH1+CD44+ HNC cells. Kind of data set: tumor initiation of transfected ALDH1+CD44+ HNC cells. In kind it is in vivo. The conditions noted are these: ALDH1+CD44+ cells-transplanted grafts in NOD-SCID mice.

As for “shSOX9+shADAM17: lentiviral-based shRNAs for co-knockdown of SOX9 (SEQ ID NO: 28) and ADAM17 (SEQ ID NO: 29) (chain 1 GCGGAGGAAGTCGGTGAAGAA; chain 2 CCTATGTCGATGCTGAACAAA; the letters are possibly those of the target site)”, in the data set on HNC cells [1], the invasive capacity result was “reduced”. Also, the animal survival result in the data set on ALDH1+CD44+ HNC cells [2] was “prolonged”. In the data set on ALDH1+CD44+ HNC cells [3], the tumor size entry is “dramatically reduced”. Moreover, the sphere-forming ability result in the data set on HNC cells [4] was “reduction”. Besides, the “percentages of CD44+ and ALDH1+ cells” value with HNC cells [5] is “reduced”. Also, the tumor-initiating property result in the data set on ALDH1+CD44+ HNC cells [6] is “effectively inhibited”.

Source of the values: patent publication US8846633B2, “Method for inhibiting cancer stem cell like properties and chemoradioresistant properties of cancer or tumor cells with microRNA145” (Taipei Veterans General Hospital, priority 2011, dated 2014).
